Experimental findings from patent publication US3987167A, “Antibiotic 20,798 R.P” (Rhone-Poulenc S.A., priority 1968, dated 1976) are described below.

Series [1] concerns acute lymphoblastic and myeloblastic leucaemias. Kind of series: Activity in human therapy. The series is classed as in vivo. As to conditions: intravenous, daily doses between 0.1 and 2 mg./kg., adult. The method, then: In human therapy 20,798 R.P. is active, particularly against acute lymphoblastic and myeloblastic leucaemias, when administered intravenously at daily doses of between 0.1 and 2 mg./kg. for an adult; a composition for injection for example, consists of a solution of 0.1 mg./cc. of active substance in physiological serum.

For the next series, the system named is sarcoma 180. Kind of series: Anti-tumour activity in mice, sarcoma 180. Particulars: graftable tumours of mice, solid form of sarcoma 180.
In a further series the test system is leucaemia L1210. Kind of series: Anti-tumour activity in mice, leucaemia L1210. Particulars: graftable tumours of mice, leucaemia L 1210.
The nature of series [2]: Stability to acid treatment of the fermentation broth. The series is classed as physicochemical. As to conditions: 10° to 75° C., 48 hours to 30 minutes. As to the method: When desired, the fermentation broth can, before the extraction procedures, be treated with an acid at a temperature between 10° and 75° C. for a period of from 48 hours to 30 minutes, the length of time varying inversely with the temperature, so as to enrich the antibiotic 9865 R.P. with daunorubicin. […] For acidification of the fermentation broth inorganic acids (hydrochloric, phosphoric or sulphuric acid) or organic acids (acetic or oxalic acid etc.) are suitable at various concentrations, but preferably hydrochloric acid or oxalic acid is used at concentrations of between 0.01N and 1N. The hydrolysis is preferably carried out for a period of from 15 hours to 1 hour at a temperature of from 20 C. to 50° C., the length of time varying inversely with the temperature.

Take `COc1cccc2c1C(=O)c1c(O)c3c(c(O)c1C2=O)CC(O)(C(C)O)CC3OC1CC(N)C(O)C(C)O1` (stereo not shown) [20,798 R.P.]: the “activity in human therapy” value in series [1] was “active”. The anti-tumour activity entry in the series with sarcoma 180 and with leucaemia L1210 was “particularly active” in each case. The “hydrolysis on acid treatment” value in series [2] is “not hydrolysed”.
